Source: US20120003655A1, “IDENTIFICATION OF NEUROPROTECTIVE AGENTS USING PRO-INFLAMMATORY HUMAN GLIAL CELLS” (The Salk Institute for Biological Studies, priority 2008, published 2012)
Entries after “also recorded” stand apart in the source; their conditions may differ.

How the values were obtained:
[1] = test system: primary human astrocytes; assay: qPCR of IL1b-induced genes in primary human astrocytes; assay type: cell-based; conditions: 1 μM for 1 hour, then 10 ng/ml IL1b 6 hours; qPCR normalized against HPRT
Experimental: (§1) FIGS. 31A-F show indazol-estrogen suppression of the inflammation in human primary microglia and astrocytes. Primary human microglia (FIGS. 31A-C) and primary human atrocities (FIGS. 31D-E) were treated with Indazol-Estrogen-Bromide (Br), Indazol-Estrogen-Chloride (Cl), 17β-Estradiol (E2) or vehicle (ethanol:EtOH) for 1 hour followed by […] LPS stimulation for 6 hours (black column: 6 hr) or no LPS treatment (white column: Ohr). Normalized mRNA expression against HPRT of IL1β (FIG. 31A), IL23p19 (FIG. 31B), TGFβ (FIG. 31C) in microglia cells and BAFF (FIG. 31D), IL23p19 (FIG. 31E), iNOS (FIG. 31F) in astrocytes were determined using quantitative PCR. Primary human microglia and astrocytes were treated with 1 μM Indazol-Estrogen-Bromide (Br), 1 μM Indazol-Estrogen-Chloride (C1), 1 μM17β-Estradiol (E2) or vehicle (ethanol:EtOH) for 1 hour as a final concentration. Then microglia cells were stimulated with 0.1 μg/ml LPS and astrocytes were stimulated with 10 ng/ml IL1b for 6 hours. mRNA were purified and cDNA were generated by reverse transcriptase reaction. To determine the effect of ERβ-specific ligands in microglia and astrocytes-mediated inflammation, the activation of several genes induced by LPS in microglia or by IL1b in astrocytes were determined by QPCR normalized against HPRT.

[2] = test system: primary human microglia; assay: qPCR of LPS-induced genes in primary human microglia; assay type: cell-based; conditions: 1 μM for 1 hour, then 0.1 μg/ml LPS 6 hours; qPCR normalized against HPRT
Experimental: as §1

[3] = test system: SOD^G37R mutated astrocyte cultures; assay: Detection of ROS production in SOD1 G37R astrocytes after anti-oxidant treatment; assay type: cell-based, human; conditions: 48 hours treatment, vs vehicle (EtOH or DMSO); apocynin 300 μM, alpha lipoic acid 50 μg/mL, epicatechin 10 μM, luteolin 5 μM, resveratrol 5 μM
Experimental: Primary astrocyte culture. Human primary astrocytes (HA1800) were obtained from ScienCell Research Laboratories™ (Carlsbad, Calif.) and were cultured according to the providers' guidelines. Briefly, the astrocytes were isolated from fetal human brain (cerebral cortex) and cultured for no more than 15 passages in astrocyte media (AM 1801). The infections were performed in 80% confluent T75 flasks followed by incubation with the lentivirus expressing either the wild type of SOD1 (LV-SOD1^wT) or the mutated form of SOD1 (LV-SOD1^G37R).
Detection of ROS production. Detection of total cellular ROS was performed using the Image-iT LIVE Green reactive Oxygen Species Detection Kit, according to the manufacturer's directions (Molecular Probes, Invitrogen). Briefly, this assay is based on the principle that the live cell permeable compound, carboxy-H2DCFDA, emits a bright green fluorescence when it is oxidized in the presence of ROS. The quantification of the ROS production was addressed in 2 ways: 1) counting the number of fluorescent cells and 2) measuring the intensity of the fluorescence emitted by the cells. The relative fluorescence intensity (arbitrary units ranging from 0 to 255, or black to white) was measured in randomly selected fields for each treatment and was analyzed and quantified using ImageProPlus software.
Anti-oxidants treatment. Anti-oxidants stock solutions were diluted in astrocyte media and directly applied to astrocyte monolayers. The cultures were treated for 48 hours prior to reactive species of oxygen (ROS) detection. The compounds used in the experiment were epicatechin (E4018 Sigma Aldrich, 10 μM), luteolin (L9283 Sigma-Aldrich, 5 μM), resveratrol (R5010Sigma-Aldrich, 5 μM), apocynin (178385 Calbiochem, 300 μM), alpha lipoic acid (T5625, Sigma-Aldrich, 50 μg/mL). For neuronal co-cultures, the astrocytes were pre-treated for 48 hours with apocynin and the rosettes were plated on top of them. The co-cultures were carried for 3 more weeks and the medium containing apocynin was replaced three more times during the co-culture period.
A total of five compounds and their respective vehicles (ethanol (EtOH) or DMSO) were tested in SOD^G37R mutated astrocyte cultures to address their anti-oxidant potential (FIG. 4A).

[4] = test system: HESC-derived motor neurons co-cultured with SOD1^G37R astrocytes; assay: Co-culture of HESC-derived motor neurons with SOD1 astrocytes, quantification of ChAT-positive cells; assay type: cell-based, human; conditions: astrocytes pre-treated 48 hours with apocynin, co-culture 3 more weeks
Experimental: Culture conditions and differentiation of HESC. The HUES cells lines used in this study were HUES9 (Douglas Melton-WiCell) and Cythera 203 (Novocell Inc. San Diego, Calif.). The HESC were differentiated in vitro in motor neurons, adapting the protocol previously described elsewhere (Li et al., 2005). Briefly, the cells were manually dissociated to form embryoid bodies (EBs) and cultured in suspension for 5-6 days. The EBs were then plated in laminin/poli-ornithin coated plates in the presence of a neural induction medium consisting of F12/DMEM (Invitrogen, Carlsbad, Calif.), N2 supplement and 1 μM retinoic acid (RA). The cells started to organize into neural tube-like rosettes and, after 7-8 days in culture, sonic hedgehog (SHH, 500 ng/ml, R&D Systems) and cAMP (1 μM) were added to the culture media for 1 more week. The rosettes were then manually selected using a 10× magnifier (Zeiss) and gently dissociated (by pipetting up and down in a Hanks' enzyme free cell dissociation buffer-Invitrogene). After dissociation, rosettes were pelleted at 1,000 rpm and re-plated either on laminin/poli-ornithine coated coverslips (for direct differentiation) or on top of astrocyte feeder layers for the co-culture experiments. […]

Compound	BAFF mRNA [1]	IL23 (IL23p19) mRNA [1]	iNOS mRNA [1]	percentage of cells that were able to produce ROS (percentage of oxidation) [3]	further results
C[C@]12CC[C@@H]3c4ccc(O)cc4CC[C@H]3[C@@H]1CC[C@@H]2O [Estradiol, 17β-Estradiol]	not	not	not		
Oc1ccc(-n2nc3ccc(O)cc3c2Br)cc1 [Indazol-Br]	repress	repress	repress		TGFβ mRNA [2]: do not repress; induction of IL1β mRNA [2]: repress; induction of IL23 (IL23p19) mRNA [2]: repress
Oc1ccc(-n2nc3ccc(O)cc3c2Cl)cc1 [Indazol-Cl]	repress	repress	repress		TGFβ mRNA [2]: do not repress; induction of IL1β mRNA [2]: repress; induction of IL23 (IL23p19) mRNA [2]: repress
O=C(O)CCCCC1CCSS1 (stereo not drawn) [alpha-lipoic acid, alpha lipoic acid]				decreased the percentage of cells that were able to produce ROS	
COc1cc(C(C)=O)ccc1O [apocynin]				decreased the percentage of cells that were able to produce ROS; also recorded: decreased the ROS production	motor neuron survival (ChAT-positive cells) [4]: restored motor neuron survival; also recorded: recovery of motor neuron survival; motor neuron survival (ChAT-positive cells) ([4]; listed as Apocynin): rescued the motor neuron survival
O=c1cc(-c2ccc(O)c(O)c2)oc2cc(O)cc(O)c12 [luteolin]				did not seem to have a detectable effect	
Oc1ccc(C=Cc2cc(O)cc(O)c2)cc1 [resveratrol]				did not seem to have a detectable effect	
